Assay: Inhibition of influenza A virus neuraminidase using 2-(4-methylumbelliferyl)-a-D-acetylneuraminic acid as substrate incubated for 30 mins by fluorescence based analysis

In the case of C=C1C[C@@H]2[C@@]3(C)CCC(=O)C(C)(C)[C@@H]3C(=O)C[C@@]2(C)[C@@]2(C(=O)OC)C(=O)[C@](C)(O)C(=O)[C@@]12C, the IC50 is reported as 18 nM.
